Experimental data: US7863271B2, “2-aminobenzoxazole carboxamides as 5HT3 modulators” (Albany Molecular Research, Inc., priority 2006, dated 2011)
pKi: −log10 of the molar value. Counter-ions that a name gives are not always drawn.

The molecules below were run against T1, 5-HT3 (Homo sapiens, UniProt P46098) (assay: Compound affinity for the human 5-HT3 receptor (Assay B), SPA radioligand binding with [9-methyl-3H]BRL-43694). Settings: Assay B (method B unless otherwise annotated); read-out: 5-HT3 Ki.
T1 sequence (P46098 24-478): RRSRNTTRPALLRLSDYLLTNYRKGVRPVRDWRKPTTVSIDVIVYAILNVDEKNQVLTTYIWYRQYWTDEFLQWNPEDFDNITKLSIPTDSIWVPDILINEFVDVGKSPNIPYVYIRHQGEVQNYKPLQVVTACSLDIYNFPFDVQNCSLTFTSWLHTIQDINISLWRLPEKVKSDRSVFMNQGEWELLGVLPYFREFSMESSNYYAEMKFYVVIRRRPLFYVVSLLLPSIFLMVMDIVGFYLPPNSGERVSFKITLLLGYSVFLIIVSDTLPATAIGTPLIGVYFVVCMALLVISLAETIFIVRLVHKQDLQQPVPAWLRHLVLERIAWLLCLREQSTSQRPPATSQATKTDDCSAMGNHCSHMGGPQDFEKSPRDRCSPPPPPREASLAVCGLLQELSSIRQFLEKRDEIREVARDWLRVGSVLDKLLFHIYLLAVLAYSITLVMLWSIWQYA
Design: purchased Perkin Elmer
Protocol: Compound Affinity for the human 5-HT3 Receptor (Assay B)
The relative affinity of the various compounds for the human 5-HT3 receptor was measured in a radioligand binding assay, using a scintillation proximity assay (SPA) format. Test compounds were dissolved to 10 mM in 100% DMSO, then serially diluted at 10× assay concentrations in 100% DMSO in 96-well polypropylene plates and further diluted to 4× assay concentrations with the assay buffer. […] Binding reactions were set up in wells of PicoPlates-96 (Perkin Elmer) by adding consecutively 50 μL of each competing compound or buffer, SPA beads, the radioligand and 5-HT3 receptor membranes. After 60-min incubation at room temperature on a Nutator mixer, plates were centrifuged for 15 min at 1,500 rpm, followed by incubation in the dark for 30 min. Radioactivity was counted in the TopCount microplate counter (Perkin Elmer) for 5 min. […] Specific binding was determined by subtracting nonspecific binding from total binding. All experiments were performed in duplicate using ten concentrations of a competing ligand, with ondansetron included as a control in every run. IC50 values were determined from specific binding data using XLfit4.1 curve fitting software from IDBS Ltd. Ki values were then calculated from the Cheng-Prusoff equation.

| Molecule | pKi |
| --- | --- |
| C[C@H]1CN(Cc2ccccc2)C(=O)[C@H](C)N1c1nc2c(C(=O)N[C@@H]3CN4CCC3CC4)cccc2o1 [Example 142, (S)—N-(quinuclidine-8-yl) 2-((2S,6S)-4-benzyl-2,6-dimethyl-3-oxopiperazine-1-yl)benzoxazole-4-carboxamide Hydrochloride] | 7.94 |
| CNc1nc2c(C(=O)N[C@H]3C[C@H]4CCC[C@@H](C3)N4C)cccc2o1 [Example 34, Endo-N-(9-Methyl-9-azabicyclo[3.3.1]non-3-yl)-2-(methylamino)benzoxazole-4-carboxamide Hydrochloride] | 8.28 |
| CCC[C@H]1COCCN1c1nc2c(C(=O)NC3CC4CCCC(C3)N4C)cccc2o1 (stereo partly drawn) [Example 66, Endo-N-(9-Methyl-9-azabicyclo[3.3.1]nonan-3-yl)-2-((S)-3-propylmorpholino)benzoxazole-4-carboxamide Hydrochloride] | 8.39 |
| C[C@H]1C(=O)NCCN1c1nc2c(C(=O)NC3CC4CCCC(C3)N4C)cccc2o1 (stereo partly drawn) [Example 98, Endo-N-(9-Methyl-9-azabicyclo[3.3.1]nonan-3-yl)-2-((S)-2-methyl-3-oxopiperazine-1-yl)benzoxazole-4-carboxamide Hydrochloride] | 7.84 |
| O=C(N[C@@H]1CN2CCC1CC2)c1cccc2oc(N3CCOCC3)nc12 [Example 10, (S)—N-(quinuclidine-8-yl)-2-morpholino-benzoxazole-4-carboxamide Hydrochloride] | 6.79 |
| O=C(NC1CN2CCC1CC2)c1cccc2oc(NCC(F)(F)F)nc12 (centres unmarked) [Example 109, Hydrochloride] | 7.32 |
| CN1[C@@H]2CCC[C@H]1C[C@@H](NC(=O)c1cccc3oc(N4CCn5c(nnc5C(F)(F)F)C4)nc13)C2 [Example 54, Endo-N-(9-Methyl-9-azabicyclo[3.3.1]nonan-3-yl)-2-(3-(trifluoromethyl)-5,6-dihydro-[1,2,4]triazolo[4,3-a]pyrazin-7(8H)-yl)benzoxazole-4-carboxamide Hydrochloride] | 6.93 |
| CN1CCN(c2nc3c(C(=O)N[C@H]4C[C@H]5CCC[C@@H](C4)N5C)cccc3o2)C(c2ccccc2)C1 (mixture of isomers) [Example 23, Endo-N-(9-Methyl-9-azabicyclo[3.3.1]non-3-yl)-2-(4-methyl-2-phenylpiperazin-1-yl)benzoxazole-4-carboxamide Dihydrochloride] | 7.60 |
| CN1[C@@H]2CCC[C@H]1C[C@@H](NC(=O)c1cccc3oc(N4CCOCC4c4ccccc4)nc13)C2 (mixture of isomers) [Example 19, Endo-N-(9-Methyl-9-azabicyclo[3.3.1]non-3-yl)-2-(3-phenylmorpholino)benzoxazole-4-carboxamide Hydrochloride] | 7.77 |
| CN1C[C@H]2C[C@@H](NC(=O)c3cccc4oc(Nc5ccccc5)nc34)C[C@@H](C1)N2C [Example 51, Endo-N-(3,9-Dimethyl-3,9-diazabicyclo[3.3.1]nonan-7-yl)-2-(phenylamino)benzoxazole-4-carboxamide Hydrochloride] | 6.67 |
| C[C@H]1CNC[C@H](C)N1c1nc2c(C(=O)NC3CN4CCC3CC4)cccc2o1 (some centres unmarked) [Example 99, Hydrochloride] | 7.88 |
| CN1C2CCCC1CC(NC(=O)c1cc(Cl)cc3oc(N4CCOC[C@@H]4C(C)(C)C)nc13)C2 (stereo partly drawn) [Example 80, Endo N-(9-Methyl-9-azabicyclo[3.3.1]nonan-3-yl)-2-((S)-3-tert-butylmorpholino)-6-chloro-benzoxazole-4-carboxamide Hydrochloride] | 7.53 |
| C[C@@H]1CNC[C@@H](C)N1c1nc2c(C(=O)NC3CC4CCCC(C3)N4C)cccc2o1 (stereo partly drawn) [Example 69, Endo-N-(9-Methyl-9-azabicyclo[3.3.1]nonan-3-yl)-2-((2R,6R)-2,6-dimethylpiperazin-1-yl)benzoxazole-4-carboxamide Hydrochloride] | 7.49 |
| CC[C@H]1COC[C@H](C)N1c1nc2c(C(=O)NC3CC4CCCC(C3)N4C)cccc2o1 (stereo partly drawn) [Example 87, Endo-N-(9-Methyl-9-azabicyclo[3.3.1]nonan-3-yl)-2-((3 S,5S)-3-ethyl-5-methylmorpholino)benzoxazole-4-carboxamide Hydrochloride] | 9.00 |
| C[C@H]1COC[C@H](C)N1c1nc2c(C(=O)NC3CC4CCC(C3)N4C)cccc2o1 (stereo partly drawn) [Example 101, N-(8-Methyl-8-azabicyclo[3.2.1]octan-3-yl)-2-(3S,5S)-3,5-dimethylmorpholinobenzoxazole-4-carboxamide Hydrochloride] | 8.59 |
| CN1[C@@H]2CCC[C@H]1C[C@@H](NC(=O)c1cccc3oc(N4CCC5(CC4)OCCO5)nc13)C2 [Example 91, Endo-N-(9-Methyl-9-azabicyclo[3.3.1]nonan-3-yl)-2-(1,4-dioxa-8-azaspiro[4.5]decan-8-yl)benzoxazole-4-carboxamide Hydrochloride] | 7.84 |
| C[C@@H]1CN(c2nc3c(C(=O)NC4CC5CCCC(C4)N5C)cccc3o2)C[C@H](C)O1 (stereo partly drawn) [Example 17, Endo-N-(9-Methyl-9-azabicyclo[3.3.1]non-3-yl)-2-[(2S,6R)-2,6-dimethylmorpholino]benzoxazole-4-carboxamide Hydrochloride] | 7.27 |
| O=C(N[C@@H]1CN2CCC1CC2)c1cccc2oc(Nc3ccccc3)nc12 [Example 6, (S)—N-(quinuclidine-8-yl)-2-(phenylamino) benzoxazole-4-carboxamide Hydrochloride] | 8.09 |
| C[C@H]1CN(C)CCN1c1nc2c(C(=O)NC3CC4CCCC(C3)N4C)cc(Cl)cc2o1 (stereo partly drawn) [Example 63, Endo-N-(9-methyl-9-azabicyclo[3.3.1]nonan-3-yl)-6-chloro-2-((S-2,4-dimethylpiperazin-1-yl)benzoxazole-4-carboxamide Hydrochloride] | 7.79 |
| CN(C)CCNc1nc2c(C(=O)N[C@H]3C[C@H]4CCC[C@@H](C3)N4C)cccc2o1 [Example 32, Endo-N-(9-Methyl-9-azabicyclo[3.3.1]nonan-3-yl)-2-(2-(dimethylamino)ethylamino)benzoxazole-4-carboxamide Trihydrochloride] | 6.63 |
| Endo-N-(9-Methyl-9-azabicyclo[3.3.1]nonan-3-yl)-2-((3aS,6aS)-hexahydropyrrolo[3,4-b]pyrrol-5(1H)-yl)benzoxazole-4-carboxamide Hydrochloride [Example 46] | 6.55 |
| CC[C@H]1CNCCN1c1nc2c(C(=O)NC3CC4CCCC(C3)N4C)cccc2o1 (stereo partly drawn) [Example 84, Endo-N-(9-Methyl-9-azabicyclo[3.3.1]nonan-3-yl)-2-((S)-2-ethylpiperazine-1-yl)benzoxazole-4-carboxamide Hydrochloride] | 7.95 |
| C[C@@H]1CN(c2nc3c(C(=O)N[C@@H]4CN5CCC4CC5)cccc3o2)C[C@H](C)O1 [Example 18, (S)—N-(quinuclidine-8-yl)-2-((2S,6R)-2,6-dimethylmorpholino)benzoxazole-4-carboxamide Hydrochloride] | 6.35 |
| CN1[C@@H]2CCC[C@H]1C[C@@H](NC(=O)c1cccc3oc(N4CCNC(=O)C4)nc13)C2 [Example 86, Endo-N-(9-Methyl-9-azabicyclo[3.3.1]nonan-3-yl)-2-(3-oxopiperazine-1-yl)benzoxazole-4-carboxamide Hydrochloride] | 7.18 |
| CN1[C@@H]2CCC[C@H]1C[C@@H](NC(=O)c1cccc3oc(N4CCNCC4)nc13)C2 [Example 21, Endo-N-(9-Methyl-9-azabicyclo[3.3.1]non-3-yl)-2-(piperazin-1-yl)benzoxazole-4-carboxamide Dihydrochloride] | 7.13 |
| CC(C)COC(=O)N1C[C@H](C)N(c2nc3c(C(=O)NC4CC5CCCC(C4)N5C)cccc3o2)[C@@H](C)C1 (stereo partly drawn) [Example 138, Endo-N-(9-methyl-9-azabicyclo[3.3.1]nonan-3-yl)-2-((2S,6S)-4-(isobutoxycarbonyl)-2,6-dimethylpiperazin-1-yl)benzoxazole-4-carboxamide Hydrochloride] | 8.62 |
| CCN(C)c1nc2c(C(=O)N[C@@H]3CN4CCC3CC4)cccc2o1 [Example 83, (S)—N-(quinuclidine-8-yl)-2-(ethyl(methyl)amino)benzoxazole-4-carboxamide Hydrochloride] | 8.17 |
| CC1CNCCN1c1nc2c(C(=O)N[C@H]3C[C@H]4CCC[C@@H](C3)N4C)cccc2o1 (stereo partly drawn) [Example 25, Endo-N-(9-Methyl-9-azabicyclo[3.3.1]non-3-yl)-2-(2-methylpiperazin-1-yl)benzoxazole-4-carboxamide Dihydrochloride] | 7.56 |
| CN1C2CCCC1CC(NC(=O)c1cccc3oc(N4CCNC[C@@H]4C(C)(C)C)nc13)C2 (stereo partly drawn) [Example 96, Endo-N-(9-Methyl-9-azabicyclo[3.3.1]nonan-3-yl)-2-((S)-2-tert-butylpiperazin-1-yl)benzoxazole-4-carboxamide Hydrochloride] | 8.12 |
